Common to all, as to assay type: cell-based, Human
One test relates to Lox (Melanoma). In words: In vitro cytotoxicity, microculture tetrazolium (MTT) assay, LOX. The conditions noted are these: Homo sapiens, 48 h with compound, further 48 h, Table 1. Summed up:
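LOX melanoma cells, 1,500–4,000 per well, exposed to compound (1:3 dilutions, 100 μM to 1.7 nM) for 48 h at 37° C., then 48 h in fresh medium. MTT reduction read at 570 nm; four-parameter logistic fit normalized to 0–100% survival.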

Test [1] has as its system SKVLB (Ovarian; multidrug resistant). In words: In vitro cytotoxicity, microculture tetrazolium (MTT) assay, SKVLB. To be noted: Homo sapiens; SKVLB multidrug resistant ovarian; 48 h with compound, further 48 h, MTT; Table 1. In a few lines:
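Multidrug-resistant SKVLB ovarian cells, 1,500–4,000 per well, exposed to compound (1:3 dilutions, 100 μM to 1.7 nM, quadruplicate) for 48 h at 37 °C, then 48 h in fresh medium. Viability by MTT reduction, formazan read at 570 nm; four-parameter logistic fit on a 0–100% survival scale.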

In test [2] the test system is SKOV3 (Ovarian adenocarcinoma). In words: In vitro cytotoxicity, microculture tetrazolium (MTT) assay, SKOV3. To be noted: Homo sapiens, SK-OV-3; SKOV3 ovarian adenocarcinoma; 48 h with compound, further 48 h, MTT; Table 1. Summed up: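 Cells plated overnight, then exposed to compound (1:3 dilutions, 100 μM to 1.7 nM, quadruplicate) 48 h at 37 °C, followed by 48 h in fresh medium. MTT 4 h, formazan extracted in DMSO/Sorensen's buffer pH 10.5, A570; four-parameter logistic fit on 0–100% survival scale.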

In test [3] the test system is T47D (Ductal carcinoma of breast). In words: In vitro cytotoxicity, microculture tetrazolium (MTT) assay, T47D. The conditions noted are these: Homo sapiens, 48 h with compound, further 48 h, Table 1. In a few lines: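 Adherent cells (1,500-4,000/well) were exposed to compound in 1:3 dilutions from 100 μM to 1.7 nM, in quadruplicate, for 48 h at 37° C, followed by 48 h in fresh medium. MTT formazan was read at 570 nm, and data were fitted by four-parameter logistic on a 0-100% survival scale.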

In test [4] the test system is HT 29 (Colon adenocarcinoma). In words: In vitro cytotoxicity, microculture tetrazolium (MTT) assay, HT29. The conditions noted are these: Homo sapiens, HT-29, 48 h with compound, further 48 h, Table 1. Summed up:
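HT29 cells exposed to compound (1:3 series, 100 μM to 1.7 nM, quadruplicate) for 48 h at 37 °C, then 48 h in fresh medium. Viability by MTT reduction, formazan absorbance at 570 nm; four-parameter logistic fit on 0-100% survival scale.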

Consider 15 compounds from patent US5606037A, “Processes antineoplastic heteronaphthoquinones” (BioChem Pharma Inc., priority 1995, dated 1997).

Counter-ions that a name gives are not always drawn.

Regarding `CC(=O)[C@H]1CC2=C(C(=O)c3ccccc3C2=O)[C@H](O[C@@H]2O[C@@H](C)[C@@H](O)[C@@H](O)[C@H]2I)O1` [BCH2014, (1'S,1S,3R)-methyl-(1-[2',6'-dideoxy-3',4'-dihydroxy-2'-iodo-L-lyxohexopyranose]-5,10-dioxo-3,4,5,10-tetrahydronaphtho[2,3-c]-pyran-3-yl)-ketone], the IC50 (commonly the concentration that gives 50% inhibition) in the test on Lox (Melanoma) is 35.9 µM; in test [1] it was 39.8 µM; in test [2], 21.5 µM; in test [3] it was 61.8 µM; in test [4] it was 61.3 µM.
For the compound `CC(=O)[C@@H]1CC2=C(C(=O)c3ccccc3C2=O)[C@@H](O[C@@H]2O[C@@H](C)[C@@H](O)[C@@H](O)[C@H]2I)O1` [BCH2015, (1'S,1R,3S)-methyl-(1-[2',6'-dideoxy-3',4'-dihydroxy-2'-iodo-L-lyxohexopyranose]-5,10-dioxo-3,4,5,10-tetrahydronaphtho[2,3-c]-pyran-3-yl) ketone], the half-maximal inhibitory concentration (IC50) in the test on Lox (Melanoma) was 1.09 µM; in test [1], 1.17 µM; in test [2], 0.367 µM; in test [3] it was 0.909 µM; in test [4], 0.557 µM.
With `CC[C@H]1CC2=C(C(=O)c3ccccc3C2=O)[C@H](O[C@H]2C[C@H](NC(=O)C(F)(F)F)[C@H](O)[C@H](C)O2)O1` [BCH2020, (1'S, 1S, 3S)-5,10-dioxo-3-ethyl-1-(2',3',6'-trideoxy-3'-trifluoroacetamido-L-lyxohexopyranose)-3,4,5,10-tetrahydro-1H-naphtho-[2,3-c]-pyran], the half-maximal inhibitory concentration (IC50) amounted to 5.45 µM in the test with Lox (Melanoma); 25.9 µM in test [1]; 11.2 µM in test [2]; 9.42 µM in test [3]; 19.1 µM in test [4].
As to `CC[C@H]1CC2=C(C(=O)c3ccccc3C2=O)[C@H](O[C@H]2C[C@H](N)[C@H](O)[C@H](C)O2)O1` [BCH2021, (1'S,1S,3S)-5,10-dioxo-3-ethyl-1-(2',3',6'-trideoxy-3'-amino-L-lyxohexopyranose)-3,4,5,10-tetrahydro-1H-naphtho-[2,3-c]-pyran hydrochloride], the half-inhibitory concentration (IC50) in the test on Lox (Melanoma) worked out at 10.6 µM; in test [1] it was 46.4 µM; in test [2], 12.4 µM; in test [3], 19 µM; in test [4], 37.8 µM.
On to `CC(=O)[C@H]1CC2=C(C(=O)c3ccccc3C2=O)[C@H](O[C@@H]2O[C@@H](C)[C@@H](O)[C@@H](NC(=O)C(F)(F)F)C2I)O1` (stereo partly drawn) [BCH2022, (1'S,1S,3R)-methyl-(1-[2',3',6'-trideoxy-2'-iodo-3'-trifluoroacetamido-4'-hydroxy-L-lyxohexopyranose]-5,10-dioxo-3,4,5,10-tetrahydronaphtho-[2,3-c]-pyran-3-yl) ketone], for which the 50% inhibitory concentration (IC50) stood at 0.484 µM with Lox (Melanoma); 1.87 µM in test [1]; 0.442 µM in test [2]; 0.934 µM in test [3]; 0.532 µM in test [4].
For `CC(=O)[C@@H]1CC2=C(C(=O)c3ccccc3C2=O)[C@@H](O[C@@H]2O[C@@H](C)[C@@H](O)[C@@H](NC(=O)C(F)(F)F)C2I)O1` (stereo partly drawn) [BCH2023, (1'S,1R,3S)-methyl-(1-[2',3',6'-trideoxy-2'-iodo-3'-trifluoroacetamido-4'-hydroxy-L-lyxohexopyranose]-5,10-dioxo-3,4,5,10-tetrahydronaphtho-[2,3-c]-pyran-3-yl) ketone], the IC50 in the test with Lox (Melanoma) was determined as 0.67 µM; in test [1], 3.2 µM; in test [2], 0.73 µM; in test [3], 5.5 µM; in test [4], 0.98 µM.
For `C[C@@H]1O[C@@H](O[C@H]2O[C@H](COc3ccccc3)CC3=C2C(=O)c2ccccc2C3=O)C[C@H](NC(=O)C(F)(F)F)[C@@H]1O` [BCH2032, (1'S, 1R, 3S)-5,10-dioxo-3-phenyloxymethyl-1-(2',3',6'-trideoxy-3'-trifluoroacetamido-L-lyxohexopyranose)-3,4,5,10-tetrahydro-1H-naphtho-[2,3-c]pyran], the IC50 with Lox (Melanoma) lay within 2.83 to 5.1 µM; in test [1] it was 17.6 to 28 µM; in test [2], 6.01 to 12 µM; in test [3], 15.8 to 23 µM; in test [4] it was 8.49 to 9.3 µM.
For `CC(=O)[C@@H]1CC2=C(C(=O)c3ccccc3C2=O)[C@@H](O[C@H]2C[C@H](NC(=O)C(F)(F)F)[C@H](O)[C@H](C)O2)S1` [BCH2037, (1'S,1S,3S)-1-(3'-trifluoroacetamido-2',3',6'-trideoxy-L-lyxohexopyranose)-5,10-dioxo-3,4,5,10-tetrahydro-1H-naphtho-[2,3-c]-thiopyran], the concentration for half-maximal inhibition (IC50) in the test on Lox (Melanoma) lay within 0.54 to 0.816 µM; in test [1], 3.8 to 4.73 µM; in test [2], 0.59 to 5.09 µM; in test [3] it was 2.2 to 2.29 µM; in test [4], 1.1 to 4.25 µM.
Take `COC1OC(C(=O)Nc2ccccc2)=CC2=C1C(=O)c1ccccc1C2=O` (stereo not drawn) [BCH2044, 1-methoxy-3-N-anilinylcarbonyl-5,10-dioxo-5,10-dihydro-1H-naphtho-[2,3-c]-pyran]: the concentration for half-maximal inhibition (IC50) in the test on Lox (Melanoma) was 0.38 µM; in test [1], 5.11 µM; in test [2], 1.44 µM; in test [3], 4.25 µM; in test [4], 0.194 µM.
The matching figures for `CC(=O)[C@H]1CC2=C(C(=O)c3ccccc3C2=O)[C@H](O[C@H]2C[C@H](NC(=O)C(F)(F)F)[C@H](Br)[C@H](C)O2)O1` [BCH2047, (1S,3R,1'S)-Methyl-(1-[2',3',4',6'-tetradeoxy-3'-trifluoroacetamido-4'-bromo-L-lyxohexopyranose]-5,10-dioxo-3,4,5,10-tetrahydronaphthaleno-[2,3-c]pyran-3-yl) ketone]: 0.021 µM, 0.523 µM, 0.017 µM, 0.151 µM and 0.0041 µM.
In the case of `CC(C)[C@@H]1CC2=C(C(=O)c3ccccc3C2=O)[C@@H](O[C@H]2C[C@H](NC(=O)C(F)(F)F)[C@H](O)[C@H](C)O2)O1` [BCH2053, (1'S, 1R, 3S)-5,10-dioxo-3-isopropyl-1-(2',3',6'-trideoxy-3'-trifluoroacetamido-L-lyxohexopyranose)-3,4,5,10-tetrahydro-1H-naphtho-[2,3-c]-pyran], the IC50 with Lox (Melanoma) worked out at 3.25 µM; in test [1], 21.2 µM; in test [2], 4.73 µM; in test [3], 12.3 µM; in test [4], 14 µM.
In the case of `CO[C@H]1C[C@H](O[C@H]2O[C@H](C(C)=O)CC3=C2C(=O)c2ccccc2C3=O)O[C@@H](C)[C@H]1OS(C)(=O)=O` [BCH2070, (1'-S, 1-R, 3-S)-methyl-(1-[2',3',4',6' tetradeoxy-3'-methoxy-4'-O-methanesulfonyl-L-lyxohexopyranose)-5,10-dioxo-3,4,5,10 tetrahydronaphtho-[2,3-c]pyran-3-yl) ketone], the IC50 in the test on Lox (Melanoma) was 0.015 µM; in test [1], 0.12 µM; in test [2] it was 0.0084 µM; in test [3] it was 0.018 µM; in test [4] it was 0.006 to 0.534 µM.
Turning to `COC(=O)[C@@]1(C)CC2=C(C(=O)c3ccccc3C2=O)[C@H](O[C@H]2C[C@H](NC(=O)C(F)(F)F)[C@H](O)[C@H](C)O2)O1` [BCH2076, (1'S,1S,3R)-1-(3'-trifluoroacetamido-2',3',6'-trideoxy-lyxo-L-hexopyranose)-3-methoxycarbonyl-3-methyl-3,4,5,10-tetrahydro-5,10-dioxo-naphtho-[2,3-c]pyran], the IC50 came to 1.8 µM in the test on Lox (Melanoma); 12.4 µM in test [1]; 1.43 µM in test [2]; 6.53 µM in test [3]; 2.6 µM in test [4].
The matching figures for `COC(=O)[C@]1(C)CC2=C(C(=O)c3ccccc3C2=O)[C@@H](O[C@H]2C[C@H](NC(=O)C(F)(F)F)[C@H](O)[C@H](C)O2)O1` [BCH2077, (1'S, 1R, 3S)-1-(3-trifluoroacetamido-2',3',6'-trideoxy-L-lyxohexopyranose)-3-methoxycarbonyl-3-methyl-3,4,5,10-tetrahydro-5,10-dioxo-1H-naphtho-[2,3-c]pyran]: 1.91 µM, 21 µM, 1.94 µM, 7.7 µM and 3.4 µM.
The matching figures for `COC(=O)[C@]1(C)CC2=C(C(=O)c3ccccc3C2=O)[C@H](O[C@H]2C[C@H](NC(=O)C(F)(F)F)[C@H](O)[C@H](C)O2)O1` [BCH2081, (1'S, 1S, 3S)-1-(3'-trifluoroacetamido-2',3',6'-trideoxy-lyxohexopyranose)-3-methoxycarbonyl-3-methyl-5,10-dioxo-4,5,10-trihydro-1H-naphtho-[2,3-c]-pyran]: 2.7 µM, 19 µM, 1.3 µM, 7.4 µM and 3.8 µM.
